Data set [1] deals with L31V/Y93H in genotype 1b NS5A replicon. Nature of the data set: Resistance mutant replicon assay, genotype 1b NS5A L31V/Y93H. The format is cell-based, HCV. The following applies: Hepatitis C virus, read-out: 1b L31V/Y93H (nM). As to the method:
(§1) Evaluation of cell-based anti-HCV activity: Antiviral potency (EC50) was determined using a Renilla luciferase (RLuc)-based HCV replicon reporter assay. To perform the assay for genotype 1 and 2a JFH-1, stable HCV 1a RLuc replicon cells (harboring a dicistronic genotype 1a H77 replicon that encodes a RLuc reporter), stable HCV lb RLuc replicon cells (harboring a dicistronic genotype 1b Conl replicon that encodes a RLuc reporter), or stable HCV 2a JFH-1 Rluc replicon cells (harboring a dicistronic genotype 2a JFH-1 replicon that encodes a RLuc reporter; with L31 present in NS5A) were dispensed into 384-well plates for EC50 assays. To perform the assay for genotype 2a (with M31 present in NS5A) or 2b, NS5A chimeric genotype 2a JFH-1 replicons that encodes a RLuc-Neo reporter and either genotype 2a J6 strain NS5A gene or genotype 2b MD2b-1 strain NS5A gene (both with M31 present) respectively, were either transiently transfected (t) into Huh-Lunet cells or were established as stably replicating replicon cells (s) is provided. Either cells were dispensed into 384-well plates for EC50 assays. To perform the assay for genotype 3 and 4, NS5A chimeric genotype 1b Conl replicons that encodes a Pi-RLuc reporter and either genotype 3a S52 strain NS5A gene or genotype 4a ED43 strain NS5A gene respectively, were transiently transfected (t) into Huh-Lunet cells, which were subsequently dispensed into 384-well plates. Compounds were dissolved in DMSO at a concentration of 10 mM and diluted in DMSO either manually or using an automated pipeting instrument. Serially 3-fold diluted compounds were either manually mixed with cell culture media and added to the seeded cells or directly added to the cells using an automated instrument. DMSO was used as a negative (solvent; no inhibition) control, and the protease inhibitor ITMN-191 was included at a concentration >100×EC50 as a positive control. 72 hours later, cells were lysed and Renilla luciferase activity quantified as recommended by the manufacturer (Promega-Madison, Wis.). Non-linear regression was performed to calculate EC50 values.
(§2) To determine the antiviral potency (EC50) against resistance mutants, resistance mutations, including M28T, Q30R, Q30H, Q30E, L31M, Y93C, Y93H, and Y93N in genotype 1a NS5A, Y93H and L31V/Y93H in genotype 1b NS5A, and Y93H for in genotype 3a NS5A, were introduced individually into either 1a Pi-Rluc or 1b Pi-Rluc replicons by site directed mutagenesis. Replicon RNA of each resistant mutant was transiently transfected into Huh-7-derived cured-51 cells and antiviral potency was determined on these transfected cells as described above.

The subject of data set [2] is Y93N in genotype 1a NS5A replicon. In words: Resistance mutant replicon assay, genotype 1a NS5A Y93N. Type of data set: cell-based, HCV. To be noted: Hepatitis C virus, read-out: 1a Y93N (nM). In short, it runs like this:
(§3)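 Site-directed mutagenesis → mutant Pi-RLuc replicon RNA → transient transfection, cured-51 Huh-7 cells → 3-fold serial cpd dilutions from DMSO stock, 72 h → RLuc read → EC50, non-linear regression.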

Data set [3] relates to stable HCV 1b RLuc replicon cells (genotype 1b Con1 replicon). Nature of the data set: HCV genotype 1b RLuc replicon reporter assay. The format is cell-based. The following applies: Hepatitis C virus; stable genotype 1b Con1 RLuc replicon cells, 72 hours. The method, boiled down: (§4)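 EC50 derived by non-linear regression of Renilla luciferase signal measured in lysates 72 h after adding 3-fold serial compound dilutions. Replicons: stable genotype 1b Con1 cells; transient Huh-Lunet transfections of NS5A chimeras—4a ED43 or 3a S52 in Con1, 2b MD2b-1 (M31) in JFH-1.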
Background: In antiviral work, replicon cells carry a viral genome segment that copies itself.

The test system of data set [4] is Q30E in genotype 1a NS5A replicon. In words: Resistance mutant replicon assay, genotype 1a NS5A Q30E. Type of data set: cell-based, HCV. The following applies: Hepatitis C virus, read-out: 1a Q30E (nM). In short, it runs like this:
as §3

The test system of data set [5] is Y93H in genotype 3a NS5A replicon. Nature of the data set: Resistance mutant replicon assay, genotype 3a NS5A Y93H. The format is cell-based, HCV. The following applies: Hepatitis C virus, read-out: 3a Y93H (nM). In short, it runs like this:
as §3

Data set [6] deals with stable HCV 1a RLuc replicon cells (genotype 1a H77 replicon). In words: HCV genotype 1a RLuc replicon reporter assay. Type of data set: cell-based. The following applies: Hepatitis C virus; stable genotype 1a H77 RLuc replicon cells, 72 hours.
The nature of data set [7]: IV and PO single dose pharmacokinetic studies in SD rats. Type of data set: in vivo. To be noted: Sprague-Dawley, rat, plasma, male SD rats, IV infusion 1 mg/kg, oral gavage 2 mg/kg, read-out: Rat % F. As to the method:
IV and PO Single Dose Pharmacokinetic Studies in SD Rats: The pharmacokinetics of selected compounds was characterized in male Sprague-Dawley (SD) rats (250-300 g). In this study, two groups of naïve purebred SD rats (N=3 per group, fasted over night) received the selected compound either as an intravenous (IV) infusion (1 mg/kg over 30 minutes) via the jugular vein or by oral gavage (2 mg/kg). The intravenous (IV) dosing vehicle was 5% ethanol, 35% polyethylene glycol 400 (PEG 400) and 60% water pH 2.0. The oral dosing vehicle was 5% ethanol, 55% PEG 400 and 40% citrate buffer pH 2.2.
Serial blood samples (approximately 0.3 mL each) were collected from jugular vein or other suitable vein at specified time points. For the IV infusion group, the blood samples were collected predose and at 0.25, 0.48, 0.58, 0.75, 1.5, 3, 6, 8, 12 and 24 hours after the start of infusion. For the oral group, the blood samples were collected predose and at 0.25, 0.50, 1, 2, 4, 6, 8, 12 and 24 hours after dosing. The blood samples were collected into Vacutainer™ tubes containing EDTA-K3 as the anti-coagulant and were centrifuged at approximately 4° C. to obtain plasma. The plasma samples were stored at −20° C. until analysis by LC/MS/MS.
A bioanalytical method utilizing high performance liquid chromatography coupled to tandem mass spectrometry (LC/MS/MS) was developed for analysis of the selected compound in rat plasma. Detection was performed using selected reaction monitoring (SRM); Ions representing the precursor (M+H)^+ species was selected in quadrupole 1 (Q1) and collided with argon gas in the collision cell (Q2) to generate specific product ion, which was subsequently monitored by quadrupole 3 (Q3). Standard curve and quality control samples were prepared in male rat plasma and processed in the same way as the test samples to generate quantitative data.
Pharmacokinetic parameters were generated using non-compartmental pharmacokinetic analysis (Phoenix WinNonlin, version 6.3). Values below the lower limit of quantification (LLOQ) were assigned a value of zero if predose and treated as missing thereafter. Area under the curve (AUC) was calculated using the linear trapezoidal rule. The oral bioavailability (% F) was determined by comparison of the area under the curve (AUC) of the compound and/or a metabolite generated in plasma following oral administration to that generated following intravenous administration.

For data set [8], the system named is NS5A chimeric genotype 1b Con1 replicon with genotype 4a ED43 strain NS5A gene. In words: HCV genotype 4a NS5A chimeric replicon assay. The format is cell-based. The following applies: Hepatitis C virus, 72 h, read-out: 4a (s) (nM).
Data set [9] deals with NS5A chimeric genotype 2a JFH-1 replicon with genotype 2b MD2b-1 strain NS5A gene (M31). Nature of the data set: HCV genotype 2b NS5A chimeric replicon assay, transient (t). Type of data set: cell-based. To be noted: Hepatitis C virus, 72 h, read-out: 2b (t) (nM). The method, boiled down: as §4
For data set [10], the system named is stable HCV 2a JFH-1 Rluc replicon cells (L31 present in NS5A). Nature of the data set: HCV genotype 2a JFH-1 RLuc replicon reporter assay. The format is cell-based. To be noted: Hepatitis C virus, 72 h, read-out: 2a JFH (nM).
The subject of data set [11] is Y93H in genotype 1a NS5A replicon. Nature of the data set: Resistance mutant replicon assay, genotype 1a NS5A Y93H. Type of data set: cell-based, HCV. The following applies: Hepatitis C virus, read-out: 1a Y93H (nM). In short, it runs like this: as §3
Data set [12] deals with NS5A chimeric genotype 2a JFH-1 replicon with genotype 2b MD2b-1 strain NS5A gene (M31). In words: HCV genotype 2b NS5A chimeric replicon assay, stable (s). To be noted: Hepatitis C virus, 72 h, read-out: 2b (s) (nM). The format is cell-based.
Data set [13] relates to Q30R in genotype 1a NS5A replicon. In words: Resistance mutant replicon assay, genotype 1a NS5A Q30R. The format is cell-based, HCV. The following applies: Hepatitis C virus, read-out: 1a Q30R (nM). Here is the method:
as §1, §2

Data set [14] relates to NS5A chimeric genotype 2a JFH-1 replicon with genotype 2a J6 strain NS5A gene (M31). In words: HCV genotype 2a J6 NS5A chimeric replicon assay, transient (t). The format is cell-based. The following applies: Hepatitis C virus, 72 h, read-out: 2a J6 (t) (nM).
Data set [15] deals with NS5A chimeric genotype 1b Con1 replicon with genotype 3a S52 strain NS5A gene. In words: HCV genotype 3a NS5A chimeric replicon assay. Type of data set: cell-based. The following applies: Hepatitis C virus, 72 h, read-out: 3a (nM). In short, it runs like this: as §4

pEC50: −log10 of the molar value.

On to `CC[C@H]1C[C@@H](c2nc3ccc4cc5c(cc4c3[nH]2)OCc2cc(-c3cnc([C@@H]4CC[C@H](C)N4C(=O)[C@@H](NC(=O)OC)C(C)C)[nH]3)ccc2-5)N(C(=O)[C@@H](NC(=O)OC)C2CCOCC2)C1` [Comp 1, reference compound], for which the EC50 amounted to 0.971 nM in [1], 2.05 nM in [2], 0.319 nM in data set [4] and 8.07 nM in [5]. The pEC50 (usually the negative decadic logarithm of the EC50, by convention in mol/L) in data set [3] was 10.57; in data set [6], 10.74. The bioavailability in [7] came to 9.9%.
With `COC(=O)N[C@H](C(=O)N1[C@@H](C)CC[C@H]1c1ncc(-c2ccc3c(c2)COc2cc4c(ccc5nc([C@@H]6CC[C@H](C)N6C(=O)[C@@H](NC(=O)OC)C6CCOCC6)[nH]c54)cc2-3)[nH]1)C1CCOCC1` [Comp 6, reference compound], the EC50 in [8] came to 0.014 nM; in [9] it was 0.092 nM; in data set [10], 0.012 nM; in [4] it was 0.101 nM; in data set [11], 0.442 nM; in data set [5], 0.252 nM. The EC50 in data set [12] came to 0.038 nM; in data set [13] it was 0.042 nM; in data set [14] it was 0.012 nM; in [15], 0.075 nM. In addition, the pEC50 in data set [3] was 10.29; in data set [6], 10.62.
For the molecule `CC[C@H](C)[C@H](NC(=O)OC)C(=O)N1[C@H](c2ncc(-c3ccc4c(c3)COc3cc5c(ccc6nc([C@@H]7CC[C@H](C)N7C(=O)[C@@H](NC(=O)OC)C7CCOCC7)[nH]c65)cc3-4)[nH]2)C[C@@H]2CCC[C@@H]21` [Comp 9, reference compound], the EC50 in data set [2] was 10.6 nM; in data set [8], 40.9 nM; in [11] it was 3.5 nM; in data set [5], 40.9 nM; in data set [13], 0.26 nM. For the same molecule, the values for the negative-log EC50 (pEC50) in [3] and in [6] were 10.47 and 10.55, respectively. Besides, in data set [7], the bioavailability is 0.571%.
Consider `COC(=O)N[C@H](C(=O)N1[C@@H](C)CC[C@H]1c1ncc(-c2ccc3c(c2)COc2cc4c(ccc5nc([C@@H]6C[C@@H]7CCC[C@@H]7N6C(=O)[C@@H](NC(=O)OC)C6CCOCC6)[nH]c54)cc2-3)[nH]1)C(C)C` [Comp 10, reference compound], for which the EC50 in data set [1] was 0.024 nM; in data set [2], 3.74 nM; in data set [8] it was 21.8 nM; in data set [4], 0.716 nM; in data set [5], 21.8 nM; in [13] it was 0.123 nM. Also, in data set [14], the EC50 turned out to be 0.024 nM. The negative-log EC50 (pEC50) is 10.62 in [3] and 10.82 in [6].
Take `COC(=O)N[C@H](C(=O)N1[C@@H](C)CC[C@H]1c1ncc(-c2ccc3c(c2)COc2cc4c(ccc5nc([C@@H]6CC[C@H](C)N6C(=O)[C@@H](NC(=O)OC)[C@H]6CCCOC6)[nH]c54)cc2-3)[nH]1)C(C)C` [Example AI, Methyl{(1S)-2-[(2S,5S)-2-methyl-5-(9-{2-[(2S,5S)-1-{(2S)-2-[(methoxycarbonyl)amino]-3-methylbutanoyl}-5-methylpyrrolidin-2-yl]-1H-imidazol-5-yl}-1,11-dihydroisochromeno[4′,3′:6,7]naphtho[1,2-d]imidazol-2-yl)pyrrolidin-1-yl]-2-oxo-1-[(3R)-tetrahydro-2H-pyran-3-yl]ethyl}carbamate]: the EC50 in data set [1] was found to be 21.4 nM; in [2] it was 4.05 nM; in data set [8], 0.012 nM; in data set [10], 0.017 nM; in data set [4] it was 2.11 nM; in data set [5], 2.84 nM. Also, the EC50 in [12] came to 0.058 nM; in [13], 0.208 nM; in data set [14] it was 0.041 nM; in data set [15], 0.028 nM. Moreover, the figures for the pEC50 in data set [3] and in [6] were 10.74 and 10.85, respectively.

(Values after patent US20160362416A1, “ANTIVIRAL COMPOUNDS” (Gilead Sciences, Inc., priority 2012, published 2016).)
